The values that follow come from PubChem BioAssay AID1552 (Sanford-Burnham Center for Chemical Genomics, 2009).

The target in the test is Ubiquitin-conjugating enzyme E2 N (Homo sapiens) (UniProt P61088). Put plainly: UBE2N binders by NMR, biophysical, purified protein (AID 1552). Particulars: NMR binding to purified UBE2N.

The source made the active and inactive calls. The rule behind the calls is not given here.

Sequence of Ubiquitin-conjugating enzyme E2 N (Homo sapiens) (P61088 whole entry, looked up): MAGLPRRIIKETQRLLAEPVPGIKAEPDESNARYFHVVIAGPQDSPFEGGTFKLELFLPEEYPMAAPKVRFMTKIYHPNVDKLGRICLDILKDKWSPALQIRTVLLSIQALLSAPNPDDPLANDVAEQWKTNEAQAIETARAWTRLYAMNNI

One may read the Kd as the equilibrium constant for the complex coming apart. On to `C=C1C2CC[C@H]3[C@]4(C)C[C@H](OC5OC(CO)C(OS(=O)(=O)O)C(OS(=O)(=O)O)C5OC(=O)CC(C)C)C[C@@H](C(=O)O)[C@H]4CC[C@]3(C2)[C@H]1O` (stereo not given in full), for which the Kd was > 4 mM (inactive).

Consider `Cc1ccc(-c2nc(-c3cccnc3)no2)cc1`, for which the Kd was > 4 mM (inactive). In the case of `CC1(C)Cc2nc3[nH]c(=S)[nH]c(=O)c3cc2CO1`, the Kd is > 4 mM (inactive).

For `O=C(Nc1cccnc1)Nc1ccc2c(c1)OCO2`, the Kd is > 4 mM (inactive).

On to `O=c1ccn([C@@H]2O[C@H](COP(=O)(O)OP(=O)(O)OP(=O)(O)O)[C@@H](O)[C@H]2O)c(=O)[nH]1`, for which the Kd is > 4 mM (inactive). Turning to `Nc1ccc2[nH]ncc2c1`, the Kd was > 4 mM (inactive). The figure for `Cn1ncc(C(=O)O)c1-c1ccccc1` is > 4 mM (inactive). On to `Nc1ccccc1N=C1CNC(=O)C1`, for which the Kd is > 4 mM (inactive). Next, `O=C1Nc2ccccc2C12OCCO2`: > 4 mM (inactive); `CC(=O)Nc1ccc(S(=O)(=O)N(C)C)cc1`: > 4 mM (inactive); `COc1cc2c(cc1-c1coc3c4c(c(OC)cc3c1=O)OC(C)(C)C=C4)OCO2`: > 4 mM (inactive). The figure for `O=C(NN1C(=O)C2C3C=CC(C3)C2C1=O)C1CC=CCC1` (stereo not given) is > 4 mM (inactive). Next, `Cn1nnc2c(N3CCC(C(N)=O)CC3)ncnc21`: > 4 mM (inactive).

Regarding `O=C(O)C1CC2CC1CCC2O` (stereo not given), the Kd is > 4 mM (inactive). Consider `CC(=O)CC(=O)N1C(O)CC[N+]1(C)C` (stereo not given), for which the Kd is > 4 mM (inactive). Next, `COc1cc(/C=C/C(=O)/C=C(O)/C=C/c2ccc(O)c(OC)c2)ccc1O`: > 4 mM (inactive); `Cc1ccc(C(=O)Nn2cnnc2)s1`: > 4 mM (inactive); `CC1=C(/C=C/C(C)=C/C=C/C(C)=C/C=C/C=C(C)/C=C/C=C(C)/C=C/C(=O)[C@]2(C)C[C@@H](O)CC2(C)C)C(C)(C)C[C@H](O)C1`: > 4 mM (inactive). Next, `CSc1cccc(NC(=O)c2c(Cl)cnn2C)c1`: > 4 mM (inactive); `CC(=O)N1CC2(C)CN(C(C)=O)CC(C)(C1)C2O` (stereo not given): > 4 mM (inactive); `NC(=S)CN1CCCC1=O`: > 4 mM (inactive).

Turning to `CCOC(=O)Cn1cnc2sc3c(c2c1=O)CCC3`, the Kd was > 4 mM (inactive).

On to `COc1ccc2cc3[n+](cc2c1OC)CCc1cc2c(cc1-3)OCO2`, for which the Kd was > 4 mM (inactive). Next, `CC(=O)NC(C)(C)C1CC=C(C)/C(=N\O)C1` (stereo not given): > 4 mM (inactive); `Cc1cc(O)c(C)c(O)c1C(=O)O`: > 4 mM (inactive); `O=C(O)Cn1c(=O)sc2ccccc21`: > 4 mM (inactive). The figure for `Cn1c(=O)n(C)c2cc(C(N)=O)ccc21` is > 4 mM (inactive). The figure for `CCCCC(Nc1n[nH]c(=O)[nH]c1=O)C(=O)O` (stereo not given) is > 4 mM (inactive). `O=C1CSC(=Nc2ccc(O)cc2)N1`: the Kd was > 4 mM (inactive). The figure for `Cc1sc2nc(SCC(=O)N(C)C)[nH]c(=O)c2c1C` is > 4 mM (inactive). As to `CCc1cccc(C)c1NC(=O)c1cc(C)oc1C`, the Kd was > 4 mM (inactive). The figure for `O=C1CSC2=NCCCN12` is > 4 mM (inactive). On to `Nc1c(N2CCCC2)cnn(-c2ccccc2)c1=O`, for which the Kd is > 4 mM (inactive). The figure for `Cc1cc(C)cc(OC(=O)N2CCOCC2)c1` is > 4 mM (inactive). With `NC(Cn1ccc(=O)c(O)c1)C(=O)O` (stereo not given), the Kd is > 4 mM (inactive). The figure for `OCc1ccncc1` is > 4 mM (inactive). Consider `c1ccc(-c2csc(Nc3cccnc3)n2)nc1`, for which the Kd was > 4 mM (inactive). On to `Cc1cc(NC(=O)c2ccc3c(c2)OCCO3)no1`, for which the Kd was > 4 mM (inactive). As for `O=C1CN(c2ccccc2)CC(=O)N1`, the Kd is > 4 mM (inactive). The figure for `O=C(O)C1CSC(c2cccnc2)N1` (stereo not given) is > 4 mM (inactive).
